This note sets out measurements from patent US9676714B2, “Sulfonylindole derivatives and method for preparing the same” (Daewoong Pharmaceutical Co., Ltd., priority 2013, dated 2017).

Where a name gives a salt, the structure may show the parent alone.

T1 sequence (P19156 whole entry): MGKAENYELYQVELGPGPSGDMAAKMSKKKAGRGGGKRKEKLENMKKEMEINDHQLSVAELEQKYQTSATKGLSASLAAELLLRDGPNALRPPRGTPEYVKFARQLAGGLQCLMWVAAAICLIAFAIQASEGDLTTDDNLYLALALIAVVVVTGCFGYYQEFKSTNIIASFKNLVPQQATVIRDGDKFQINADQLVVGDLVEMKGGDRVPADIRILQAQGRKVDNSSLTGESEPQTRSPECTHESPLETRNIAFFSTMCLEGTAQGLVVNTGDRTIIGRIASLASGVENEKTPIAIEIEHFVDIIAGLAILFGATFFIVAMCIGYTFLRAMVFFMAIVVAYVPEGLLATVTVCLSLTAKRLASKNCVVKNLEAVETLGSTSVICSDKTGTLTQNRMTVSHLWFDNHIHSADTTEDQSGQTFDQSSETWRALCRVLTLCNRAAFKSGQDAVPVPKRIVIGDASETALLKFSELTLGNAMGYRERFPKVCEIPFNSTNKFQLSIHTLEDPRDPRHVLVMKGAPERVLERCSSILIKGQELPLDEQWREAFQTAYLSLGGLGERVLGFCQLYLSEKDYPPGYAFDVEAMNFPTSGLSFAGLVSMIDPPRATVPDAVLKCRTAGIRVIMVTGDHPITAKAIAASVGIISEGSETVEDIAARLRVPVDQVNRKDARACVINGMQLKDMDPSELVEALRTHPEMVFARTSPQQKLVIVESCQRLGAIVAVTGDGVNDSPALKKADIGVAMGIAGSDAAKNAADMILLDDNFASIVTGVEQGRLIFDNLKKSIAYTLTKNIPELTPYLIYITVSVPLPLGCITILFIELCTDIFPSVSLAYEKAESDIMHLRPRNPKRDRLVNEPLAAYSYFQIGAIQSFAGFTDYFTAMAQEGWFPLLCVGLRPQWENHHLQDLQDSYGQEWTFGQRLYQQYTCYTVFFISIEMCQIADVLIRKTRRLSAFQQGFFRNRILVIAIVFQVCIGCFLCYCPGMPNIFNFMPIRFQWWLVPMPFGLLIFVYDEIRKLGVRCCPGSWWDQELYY
T1 sequence (P18434 whole entry partner): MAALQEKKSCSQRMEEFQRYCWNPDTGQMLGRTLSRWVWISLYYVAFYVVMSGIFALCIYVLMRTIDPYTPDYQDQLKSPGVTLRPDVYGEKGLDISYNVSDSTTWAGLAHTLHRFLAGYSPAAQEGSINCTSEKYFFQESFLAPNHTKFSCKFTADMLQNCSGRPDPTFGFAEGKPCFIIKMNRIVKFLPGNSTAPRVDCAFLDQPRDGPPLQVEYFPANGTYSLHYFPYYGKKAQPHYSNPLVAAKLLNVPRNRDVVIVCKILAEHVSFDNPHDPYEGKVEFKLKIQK

This test has as its target T1, proton pump (H+/K+-ATPase) (Sus scrofa, UniProt P19156).
T1 construct: Gastric vesicles were prepared from hog stomach via centrifugal separation; from tissue; host or cells: hog stomach (gastric vesicles, method of Rabon et al. 1988)
Nature of the test: Measurement of inhibitory effects on proton pump (H+/K+-ATPase) activities. Type of test: biochemical. The note with it: hog gastric vesicles, K+-specific H+/K+-ATPase activity, Tris-HCl buffer pH 7.4, 37° C. for 40 minutes, malachite green Pi readout. Summed up:
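Hog gastric vesicles in 60 mmol/l Tris-HCl pH 7.4 with 0.5% DMSO were treated with compounds at room temperature; reaction was started with 10 μl of 10 mmol/l ATP stock. Released Pi was read at 570 nm, K+-specific activity taken as the ±K+ difference. IC50 from 4-parameter logistic fit.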
As usually defined, the IC50 is the concentration that gives 50% inhibition. The low end stands for greater potency in that assay, the high end for weaker potency in that assay. For the compound `CNCc1cn(S(=O)(=O)c2cccc(C(F)(F)F)c2)c2cc(Cc3ccc(C)cc3Cl)ccc12` [Example 302, 1-(6-(2-chloro-4-methylbenzyl)-1-((3-(trifluoromethyl)phenyl)sulfonyl)-1H-indol-3-yl)-N-methylmethanamine], half-maximal inhibition (IC50) required 320 nM.
As to `CNCc1cn(S(=O)(=O)c2cccnc2)c2cc(Nc3c(F)c(F)cc(F)c3F)ccc12` [Example 95, 3-((methylamino)methyl)-1-(pyridin-3-ylsulfonyl)-N-(2,3,5,6-tetrafluorophenyl)-1H-indol-6-amine hydrochloride], the IC50 was 480 nM.
As for `CNCc1cn(S(=O)(=O)c2cccnc2)c2cc(Nc3ccc(C#N)cc3C(F)(F)F)ccc12` [Example 40, 4-((3-((methylamino)methyl)-1-(pyridin-3-ylsulfonyl)-1H-indol-6-yl)amino)-3-(trifluoromethyl)benzonitrile hydrochloride], the IC50 turned out to be 1830 nM.
In turn, `COC(=O)c1cn(S(=O)(=O)c2cccnc2)c2cc(-c3ccc(F)nc3)ccc12` [Example 336, methyl 6-(6-fluoropyridin-3-yl)-1-(pyridin-3-ylsulfonyl)-1H-indol-3-carboxylate] registered an IC50 of 2700 nM.
The compound `CNCc1cn(S(=O)(=O)c2cccnc2)c2cc(Nc3c(F)cc(Cl)cc3F)ccc12` [Example 86, N-(4-chloro-2,6-difluorophenyl)-3-((methylamino)methyl)-1-(pyridin-3-ylsulfonyl)-1H-indol-6-amine hydrochloride] gave an IC50 of 650 nM.
Take `CNCc1cn(S(=O)(=O)c2cccnc2)c2cc(Nc3ccc([N+](=O)[O-])cc3C)ccc12` [Example 42, N-(2-methyl-4-nitrophenyl)-3-((methylamino)methyl)-1-(pyridin-3-ylsulfonyl)-1H-indol-6-amine hydrochloride]: 340 nM corresponded to half-maximal inhibition (IC50).
As to `CNCc1cn(S(=O)(=O)c2ccc(OC(F)(F)F)cc2)c2cc(Nc3ccc(OC(F)(F)F)cc3C)ccc12` [Example 209, N-(2-methyl-4-(trifluoromethoxy)phenyl)-3-((methylamino)methyl)1-((4-(trifluoromethoxy)phenyl)sulfonyl)-1H-indol-6-amine hydrochloride], the midpoint of inhibition, the IC50, lay at 1060 nM.
With `CNCc1cn(S(=O)(=O)c2ccc(-c3ccccc3)cc2)c2cc(Nc3ccc(C)cc3F)ccc12` [Example 232, 1-([1,1′-biphenyl]-4-ylsulfonyl)-N-(2-fluoro-4-methylphenyl)-3-((methylamino)methyl)-1H-indol-6-amine hydrochloride], it took 2150 nM to reach half-maximal inhibition (IC50).
Regarding `CNCc1cn(S(=O)(=O)c2cccc(Cl)c2)c2cc(Nc3ccc(C)cc3Cl)ccc12` [Example 147, N-(2-chloro-4-methylphenyl)-1-((3-chlorophenyl)sulfonyl)-3-((methylamino)methyl)-1H-indol-6-amine hydrochloride], the IC50 was 90 nM.
`CNCc1cn(S(=O)(=O)c2cccc3ccccc23)c2cc(Nc3ccc(C)cc3F)ccc12` [Example 233, N-(2-fluoro-4-methylphenyl)-3-((methylamino)methyl)-1-(naphthalen-1-ylsulfonyl)-1H-indol-6-amine hydrochloride] registered an IC50 of 2850 nM.
In the case of `CNCc1cn(S(=O)(=O)c2cccnc2)c2cc(Nc3ccccc3F)ccc12` [Example 3, N-(2-fluorophenyl)-3-((methylamino)methyl)-1-(pyridin-3-ylsulfonyl)-1H-indol-6-amine hydrochloride], the IC50 is 250 nM.
Compound `CNCc1cn(S(=O)(=O)c2cccnc2)c2cc(Nc3cc(-c4ccccc4)ccc3C)ccc12` [Example 16, N-(4-methyl-[1,1′-biphenyl]-3-yl)-3-((methylamino)methyl)-1-(pyridin-3-ylsulfonyl)-1H-indol-6-amine hydrochloride] returned an IC50 of 780 nM.
Turning to `CNCc1cn(S(=O)(=O)c2cccc(F)c2)c2cc(Cc3ccc(OC)nc3Cl)ccc12` [Example 292, 1-(6-((2-chloro-6-methoxypyridin-3-yl)methyl)-1-((3-fluorophenyl)sulfonyl)-1H-indol-3-yl)-N-methylmethanamine hydrochloride], inhibition was half-maximal at 640 nM (IC50).
The compound `COc1ccc(Nc2ccc3c(C(=O)N(C)C)cn(S(=O)(=O)c4cccc(C(F)(F)F)c4)c3c2)c(Cl)n1` [Example 321, 6-((2-chloro-6-methoxypyridin-3-yl)amino)-N,N-dimethyl-1-((3-(trifluoromethyl)phenyl)sulfonyl)-1H-indol-3-carboxamide] returned an IC50 of 3350 nM.
`CNCc1cn(S(=O)(=O)c2cccnc2)c2cc(Nc3ccc(C#N)cc3C)ccc12` [Example 36, 3-methyl-4-((3-((methylamino)methyl)-1-(pyridin-3-ylsulfonyl)-1H-indol-6-yl)amino)benzonitrile hydrochloride]: inhibition was half-maximal at 340 nM (IC50).
Turning to `CNCc1cn(S(=O)(=O)c2cccnc2)c2cc(Nc3ccc4c(c3)OCCO4)ccc12` [Example 97, N-(2,3-dihydrobenzo[b][1,4]dioxin-6-yl)-3-((methylamino)methyl)-1-(pyridin-3-ylsulfonyl)-1H-indol-6-amine hydrochloride], the IC50 was 670 nM.
`CNCc1cn(S(=O)(=O)c2cccc(OC)c2)c2cc(Nc3ccc(C)cc3F)ccc12` [Example 162, N-(2-fluoro-4-methylphenyl)-1-((3-methoxyphenyl)sulfonyl)-3-((methylamino)methyl)-1H-indol-6-amine hydrochloride]: it took 20 nM to reach half-maximal inhibition (IC50).
Regarding `CNCc1cn(S(=O)(=O)c2cccc(F)c2)c2cc(Nc3ccc(C)cc3F)cnc12` [Example 339, N-(2-fluoro-4-methylphenyl)-1-((3-fluorophenyl)sulfonyl)-3-((methylamino)methyl)-1H-pyrrolo[3,2-b]pyridin-6-amine hydrochloride], the IC50 came out at 370 nM.
As for `CNCc1cn(S(=O)(=O)c2cccnc2)c2cc(Nc3ncccc3C(F)(F)F)ccc12` [Example 101, 3-((methylamino)methyl)-1-(pyridin-3-ylsulfonyl)-N-(3-(trifluoromethyl)pyridin-2-yl)-1H-indol-6-amine hydrochloride], the figure is 2200 nM.
In the case of `CNCc1cn(S(=O)(=O)c2cccnc2)c2cc(Nc3cc(F)c(Br)cc3F)ccc12` [Example 79, N-(4-bromo-2,5-difluorophenyl)-3-((methylamino)methyl)-1-(pyridin-3-ylsulfonyl)-1H-indol-6-amine hydrochloride], inhibition was half-maximal at 1380 nM (IC50).
In the case of `CNCc1cn(S(=O)(=O)c2cccnc2)c2cc(Nc3c(F)cc(Br)cc3F)ccc12` [Example 92, N-(4-bromo-2,6-difluorophenyl)-3-((methylamino)methyl)-1-(pyridin-3-ylsulfonyl)-1H-indol-6-amine hydrochloride], the IC50 is 1510 nM.
Compound `CNCc1cn(S(=O)(=O)c2cccnc2)c2cc(Nc3ccncc3Cl)ccc12` [Example 128, N-(3-chloropyridin-4-yl)-3-((methylamino)methyl)-1-(pyridin-3-ylsulfonyl)-1H-indol-6-amine hydrochloride] returned an IC50 of 1220 nM.
Take `CNCc1cn(S(=O)(=O)c2cccc(Cl)c2)c2cc(Cc3ccc(C)cc3Cl)ccc12` [Example 301, 1-(6-(2-chloro-4-methylbenzyl)-1-((3-chlorophenyl)sulfonyl)-1H-indol-3-yl)-N-methylmethanamine]: 790 nM corresponded to half-maximal inhibition (IC50).
For `CNCc1cn(S(=O)(=O)c2cccnc2)c2cc(Nc3ccc(F)c(OC)c3F)ccc12` [Example 68, N-(2,4-difluoro-3-methoxyphenyl)-3-((methylamino)methyl)-1-(pyridin-3-ylsulfonyl)-1H-indol-6-amine hydrochloride], the IC50 was found to be 2390 nM.
`CNCc1cn(S(=O)(=O)c2cccnc2)c2cc(Nc3ccc(Oc4ccccc4)cc3)ccc12` [Example 17, 3-((methylamino)methyl)-N-(4-phenoxyphenyl)-1-(pyridin-3-ylsulfonyl)-1H-indol-6-amine hydrochloride] had an IC50 of 2250 nM.
In the case of `COc1cc(OC(F)(F)F)ccc1Nc1ccc2c(C(=O)N(C)C)cn(S(=O)(=O)c3cccnc3)c2c1` [Example 328, 6-((2-methoxy-4-(trifluoromethoxy)phenyl)amino)-N,N-dimethyl-1-(pyridin-3-ylsulfonyl)-1H-indol-3-carboxamide] it was 5000 nM; in that of `CNCc1cn(S(=O)(=O)c2cccnc2)c2cc(Nc3cccnc3Cl)ccc12` [Example 107, N-(2-chloropyridin-3-yl)-3-((methylamino)methyl)-1-(pyridin-3-ylsulfonyl)-1H-indol-6-amine hydrochloride], 480 nM.
In the case of `CNCc1cn(S(=O)(=O)c2cccnc2)c2cc(Cc3ccc(OC(F)(F)F)cc3)ccc12` [Example 271, N-methyl-1-(1-(pyridin-3-ylsulfonyl)-6-(4-(trifluoromethoxy)benzyl)-1H-indol-3-yl)methanamine hydrochloride] it was 3950 nM.
Regarding `CNCc1cn(S(=O)(=O)c2cccnc2)c2cc(Cc3ccc(Cl)cc3F)ccc12` [Example 274, 1-(6-(4-chloro-2-fluorobenzyl)-1-(pyridin-3-ylsulfonyl)-1H-indol-3-yl)-N-methylmethanamine hydrochloride], the IC50 is 1170 nM.
As for `CNCc1cn(S(=O)(=O)c2ccc(Cl)cc2)c2cc(Nc3ccc(C)cc3F)ccc12` [Example 230, 1-((4-chlorophenyl)sulfonyl)-N-(2-fluoro-4-methylphenyl)-3-((methylamino)methyl)-1H-indol-6-amine hydrochloride], it took 910 nM to reach half-maximal inhibition (IC50).
Compound `CNCc1cn(S(=O)(=O)c2cccnc2)c2cc(Oc3ncc(C(F)(F)F)cc3Cl)ccc12` [Example 312, 1-(6-((3-chloro-5-(trifluoromethyl)pyridin-2-yl)oxy)-1-(pyridin-3-ylsulfonyl)-1H-indol-3-yl)-N-methylmethanamine hydrochloride] had an IC50 of 660 nM.
